Reference: US6090987A, “Metal-ligand complex catalyzed processes” (Union Carbide Chemicals & Plastics Technology Corporation, priority 1998, dated 2000)

Columns and labels:
[1] = Residual propylene hydroformylation activity after heat treatment, Ligand F catalyst (Table 1)
Protocol: A catalyst solution (100 milliliters) was generated in a six ounce Fisher Porter Bottle by dissolving 0.063 grams of rhodium dicarbonyl 2,4-pentanedionate, 0.8 grams of Ligand F, 20 grams of n-butyraldehyde, and 78.7 grams of tetraethylene glycol dimethyl ether, subsequently alternately evacuating and flushing with nitrogen; and finally adding 60 psi of CO:H2, and placing the bottles in a 100° C. oil bath for 1 hour.
After closing the reactor, the system was again purged with nitrogen and place in an oil bath heated to 100° C. The hydroformylation reaction in each experiment was conducted at a total gas pressure of 160 psig. The target partial pressure of hydrogen, carbon monoxide, and propylene being about 45 psia, 45 psia, and 5 psia respectively, with the remainder being nitrogen. The flows of the feed gases (carbon monoxide, hydrogen, propylene, and nitrogen) were controlled individually with mass flow meters. The feed gases were dispersed into the precursor solution via stainless steel 7-micron filters used as spargers. The unreacted portion of the feed gases stripped out the product aldehydes. Each experiment was operated for 24 hours under the above conditions. The activity is defined as the observed reaction rate divided by the predicted reaction rate. The reaction rates are expressed in terms of gram moles per liter per hour.
The same procedure as in Example 2 was followed with the exception that a slow stream of 1,2-propadiene was purged through the initially generated catalyst solution for 5 minutes. Excess was then removed by alternately evacuating and flushing with nitrogen. The resulting solution was heated at 125° C. as in Example 2, and 20 milliliters of the resulting solution was transferred to a glass reactor as in Example 2 and the activity determined.
The same procedure as in Example 3 was followed except 2 milliliters of 1,3-butadiene was added to the generated catalyst and stirred for 5 minutes. Excess 1,3-butadiene was then removed by alternate evacuation and flushing with nitrogen. The resulting solution was heated at 125° C. as in Example 2, and 20 milliliters of the resulting solution was transferred to a glass reactor as in Example 2 and the activity determined.
The same procedure as in Example 4 was followed with the exception that 50 milliliters of a catalyst solution generated as in Example 2 was treated with 0.5 milliliters of 2-methyl-1,3-butadiene (isoprene) in place of 1,3-butadiene.
A catalyst solution (20 milliliters) was generated in a Fisher Porter Bottle as in Example 2 under 60 psi CO:H2 for 1 hour, then cooled to room temperature and treated with 0.5 milliliters of 1,3-butadiene. The solution was removed from the Fisher Bottle by hypodermic syringe and transferred to a 100 milliliter stirred stainless vessel and maintained at 140° C. under 15 psi nitrogen for 14 hours. The resulting solution was then transferred to the glass reactors as in Example 2, and the residual catalyst activity measured. […]
The same procedure as in Example 8 was followed except allene was employed in place of 1,3-butadiene, and the resulting solution heated at 140° C. for 48 hours without removing excess allene.
A 20 milliliter sample of freshly generated catalyst solution (prepared as in Example 2) was charged to the glass reactors and the activity measured.
The same procedure as in Example 8 was followed except 0.4 grams of 1,3-cyclohexadiene was employed in place of 1,3-butadiene.

[2] = Propylene hydroformylation rate and colour of (TPP)3 Rh(CO)H catalyst after thermal treatment; conditions: for hydroformylation rate: 100° C.
Protocol: TPP is triphenylphosphine. 15 grams of this bright yellow solution was charged to a Fisher Porter bottle under inert gas. To this solution was added 20 psi of butadiene with stirring. The pressure dropped as the butadiene dissolved into the solution. The reactor was repressured twice with butadiene (20 psig) and then the reaction was place under a total of 45 psig with nitrogen. The solution was heated to 120° C. for 15 minutes. […] At ambient temperature, the reaction was placed under vacuum for 4 hours to remove any excess butadiene.
Since the solvent has a very high boiling point, the concentration of rhodium was assumed to have remained unchanged while under vacuum. Indeed, no change in volume was detected visually while under vacuum. 15.0 milliliters of the 275 parts per million solution was charged to a 100 milliliter autoclave.
This example is a control for Example 23. 15 grams of the catalyst solution prepared in Example 23 was charged to a Fisher Porter bottle under inert gas. 45 psig of nitrogen was added to the reaction vessel, then the reaction was heated to 120° C. for 15 minutes. […] 15.0 milliliters of the 275 parts per million solution was charged to a 100 milliliter autoclave.
A catalyst solution was prepared by adding 113 milligrams of (TPP)3 Rh(CO)H to 40.4 grams Filmer IBT® available from Union Carbide Corporation, Danbury, Conn., resulting in a rhodium concentration of 312 parts per million. At this point, the rhodium complex was a suspended in the solvent. Approximately 20 grams of this solution of (TPP)3 Rh(CO)H in tetraglyme was charged to a Fisher Porter bottle under inert gas. To this solution was added 30 psi of butadiene with stirring. The pressure dropped to 20 psig as the butadiene dissolved into the solution. The reactor was repressured twice with butadiene (30 psig) and then the pressure was adjusted to 60 psig with nitrogen. The solution was placed into 140° C. oil bath, which caused the reaction to become homogeneous within a minute. The reaction was maintained at 140° C. for 50 minutes. […] The reaction vessel was removed from the oil bath and the butadiene was vented from the reactor while the reaction was hot. After gas evolution ceased, the reaction vessel was placed carefully placed under dynamic vacuum until gas evolution had ceased for 10 minutes. The reaction was then placed under a slight positive pressure of nitrogen. […] 15.0 milliliters of the 284 parts per million solution was charged to a 100 milliliter autoclave.
This example serves as a control for Example 25. Approximately 20 grams of the solution prepared in Example 25 was charged to a Fisher Porter bottle under inert gas. 60 psig of nitrogen was added to the reaction vessel, then the reaction was heated to 140° C. for approximately 110 minutes. […] This solution was place into and out of the oil bath at the same time as the solution in Example 25. After thermal treatment, 10 weight percent of triphenylphosphine was added to the reaction mixture. […] 15 milliliters of the 284 parts per million solution was charged to a 100 milliliter autoclave.

[3] = 125° C./24 hours, no excess diene
[4] = 140° C./14 hours, excess diene present
[5] = 140° C./48 hours, excess diene present

In the case of `C=CC=C` [Butadiene, 1,3-butadiene], the “% Activity” value [1, 3] is reported as 102%, the “Final Rate” value [1, 3] is reported as 2.23 gram moles per liter per hour and the “% Activity” value [1, 4] is reported as 25.2%. The “Final Rate” value [1, 4] was 0.55 gram moles per liter per hour, the “% Activity” value [1, 5] was 96.3% and the “Final Rate” value [1, 5] was 2.10 gram moles per liter per hour. For the same compound, the “color change of catalyst solution” value ([2]; 120° C. for 15 minutes under butadiene/nitrogen) was “No color change was observed”, the “color of catalyst solution” value ([2]; 140° C. for 50 minutes under butadiene/nitrogen) was “maintained a bright yellow color” and the “color change of catalyst solution” value ([2]; 140° C. for further 60 minutes, butadiene removed) was “no observable color change”. For the same compound, the hydroformylation rate ([2]; after 120° C. for 15 minutes with butadiene, 275 ppm Rh, 9.1 wt% triphenylphosphine, 115 psig) was 1.4 gmol/L-h and the hydroformylation rate ([2]; after 140° C. for 50 minutes with butadiene and 60 minutes after venting, 284 ppm Rh, 95 psig) was 1.0 gmol/L-h.
